In the NIST ThermoML archive (doi:10.1021/acs.jced.8b00979):

Assay: xn = mol fraction of the nth substance listed
Details: 100 kPa, Liquid; for viscosity: Capillary tube (Ostwald / Ubbelohde) method; for mass density: Vibrating tube method

CCCC(C)O (stereo not given) [pentan-2-ol] + CCCCCO
Details | mass density [kg/m3] | viscosity [mPa·s]
288.15 K, x2 = 0 | 813.34 | 5.057
288.15 K, x2 = 0.1 | 813.91 | 4.988
288.15 K, x2 = 0.2 | 814.5 | 4.929
288.15 K, x2 = 0.298 | 815.05 | 4.881
288.15 K, x2 = 0.4 | 815.6 | 4.842
288.15 K, x2 = 0.5 | 816.13 | 4.806
288.15 K, x2 = 0.601 | 816.66 | 4.772
288.15 K, x2 = 0.699 | 817.15 | 4.741
288.15 K, x2 = 0.798 | 817.63 | 4.714
288.15 K, x2 = 0.901 | 818.1 | 4.697
293.15 K, x2 = 0 | 809.38 | 4.174
293.15 K, x2 = 0.1 | 810 | 4.141
293.15 K, x2 = 0.2 | 810.63 | 4.114
293.15 K, x2 = 0.298 | 811.21 | 4.095
293.15 K, x2 = 0.4 | 811.79 | 4.079
293.15 K, x2 = 0.5 | 812.36 | 4.065
293.15 K, x2 = 0.601 | 812.92 | 4.054
293.15 K, x2 = 0.699 | 813.44 | 4.047
293.15 K, x2 = 0.798 | 813.95 | 4.045
293.15 K, x2 = 0.901 | 814.45 | 4.044
298.15 K, x2 = 0 | 805.35 | 3.398
298.15 K, x2 = 0.1 | 806.03 | 3.388
298.15 K, x2 = 0.2 | 806.7 | 3.382
298.15 K, x2 = 0.298 | 807.31 | 3.377
298.15 K, x2 = 0.4 | 807.93 | 3.373
298.15 K, x2 = 0.5 | 808.54 | 3.371
298.15 K, x2 = 0.601 | 809.14 | 3.377
298.15 K, x2 = 0.699 | 809.7 | 3.385
298.15 K, x2 = 0.798 | 810.24 | 3.402
298.15 K, x2 = 0.901 | 810.78 | 3.434
303.15 K, x2 = 0 | 801.24 | 2.82
303.15 K, x2 = 0.1 | 801.98 | 2.815
303.15 K, x2 = 0.2 | 802.7 | 2.815
303.15 K, x2 = 0.298 | 803.36 | 2.819
303.15 K, x2 = 0.4 | 804.02 | 2.833
303.15 K, x2 = 0.5 | 804.67 | 2.852
303.15 K, x2 = 0.601 | 805.32 | 2.875
303.15 K, x2 = 0.699 | 805.92 | 2.901
303.15 K, x2 = 0.798 | 806.5 | 2.932
303.15 K, x2 = 0.901 | 807.06 | 2.974
308.15 K, x2 = 0 | 797.05 | 2.336
308.15 K, x2 = 0.1 | 797.85 | 2.354
308.15 K, x2 = 0.2 | 798.63 | 2.373
308.15 K, x2 = 0.298 | 799.35 | 2.392
308.15 K, x2 = 0.4 | 800.06 | 2.416
308.15 K, x2 = 0.5 | 800.76 | 2.442
308.15 K, x2 = 0.601 | 801.45 | 2.472
308.15 K, x2 = 0.699 | 802.11 | 2.504
308.15 K, x2 = 0.798 | 802.74 | 2.54
308.15 K, x2 = 0.901 | 803.33 | 2.587
313.15 K, x2 = 0 | 792.78 | 1.99
313.15 K, x2 = 0.1 | 793.65 | 2.016
313.15 K, x2 = 0.2 | 794.49 | 2.039
313.15 K, x2 = 0.298 | 795.28 | 2.063
313.15 K, x2 = 0.4 | 796.05 | 2.09
313.15 K, x2 = 0.5 | 796.8 | 2.119
313.15 K, x2 = 0.601 | 797.54 | 2.152
313.15 K, x2 = 0.699 | 798.25 | 2.188
313.15 K, x2 = 0.798 | 798.92 | 2.226
313.15 K, x2 = 0.901 | 799.56 | 2.272
318.15 K, x2 = 0 | 788.42 | 1.706
318.15 K, x2 = 0.1 | 789.37 | 1.726
318.15 K, x2 = 0.2 | 790.29 | 1.751
318.15 K, x2 = 0.298 | 791.13 | 1.778
318.15 K, x2 = 0.4 | 791.96 | 1.809
318.15 K, x2 = 0.5 | 792.77 | 1.842
318.15 K, x2 = 0.601 | 793.58 | 1.878
318.15 K, x2 = 0.699 | 794.34 | 1.916
318.15 K, x2 = 0.798 | 795.06 | 1.956
318.15 K, x2 = 0.901 | 795.75 | 1.997
323.15 K, x2 = 0 | 783.99 | 1.472
323.15 K, x2 = 0.1 | 785.02 | 1.498
323.15 K, x2 = 0.2 | 786.01 | 1.522
323.15 K, x2 = 0.298 | 786.92 | 1.546
323.15 K, x2 = 0.4 | 787.82 | 1.575
323.15 K, x2 = 0.5 | 788.69 | 1.607
323.15 K, x2 = 0.601 | 789.56 | 1.642
323.15 K, x2 = 0.699 | 790.38 | 1.679
323.15 K, x2 = 0.798 | 791.17 | 1.718
323.15 K, x2 = 0.901 | 791.88 | 1.762
328.15 K, x2 = 0 | 779.46 | 1.306
328.15 K, x2 = 0.1 | 780.57 | 1.317
328.15 K, x2 = 0.2 | 781.64 | 1.335
328.15 K, x2 = 0.298 | 782.65 | 1.359
328.15 K, x2 = 0.4 | 783.63 | 1.387
328.15 K, x2 = 0.5 | 784.57 | 1.418
328.15 K, x2 = 0.601 | 785.5 | 1.45
328.15 K, x2 = 0.699 | 786.38 | 1.486
328.15 K, x2 = 0.798 | 787.22 | 1.524
328.15 K, x2 = 0.901 | 787.98 | 1.564
